The structures appear in SMILES notation. Calls of active or inactive are those of the source. The calls are words filed in the database; no cut-off is given here.

Test [1] has as its target T1, Tyrosinase (Agaricus bisporus, UniProt O42713).
T1 sequence (O42713 whole entry): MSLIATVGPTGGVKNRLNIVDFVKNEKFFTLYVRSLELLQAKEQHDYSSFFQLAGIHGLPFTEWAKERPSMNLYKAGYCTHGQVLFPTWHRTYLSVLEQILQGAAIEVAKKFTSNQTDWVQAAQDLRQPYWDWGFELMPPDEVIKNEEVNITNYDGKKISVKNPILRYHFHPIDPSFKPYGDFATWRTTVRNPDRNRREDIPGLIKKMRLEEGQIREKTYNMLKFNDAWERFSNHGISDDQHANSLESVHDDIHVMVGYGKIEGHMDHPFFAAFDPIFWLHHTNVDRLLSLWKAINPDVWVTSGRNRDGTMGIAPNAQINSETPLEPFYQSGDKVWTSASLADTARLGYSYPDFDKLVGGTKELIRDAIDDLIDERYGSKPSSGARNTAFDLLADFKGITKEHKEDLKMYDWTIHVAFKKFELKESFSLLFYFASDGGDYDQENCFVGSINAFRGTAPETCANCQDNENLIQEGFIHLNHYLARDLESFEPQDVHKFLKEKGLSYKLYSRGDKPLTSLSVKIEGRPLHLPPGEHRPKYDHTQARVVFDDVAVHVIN
Description: Inhibition of mushroom tyrosinase

The target of test [2] is T1, Tyrosinase. This is another data set of the same source.
Description: Non-competitive inhibition of mushroom tyrosinase
Test [3] concerns the target T2, Tyrosinase (Homo sapiens) (UniProt P14679).
T2 sequence (whole entry): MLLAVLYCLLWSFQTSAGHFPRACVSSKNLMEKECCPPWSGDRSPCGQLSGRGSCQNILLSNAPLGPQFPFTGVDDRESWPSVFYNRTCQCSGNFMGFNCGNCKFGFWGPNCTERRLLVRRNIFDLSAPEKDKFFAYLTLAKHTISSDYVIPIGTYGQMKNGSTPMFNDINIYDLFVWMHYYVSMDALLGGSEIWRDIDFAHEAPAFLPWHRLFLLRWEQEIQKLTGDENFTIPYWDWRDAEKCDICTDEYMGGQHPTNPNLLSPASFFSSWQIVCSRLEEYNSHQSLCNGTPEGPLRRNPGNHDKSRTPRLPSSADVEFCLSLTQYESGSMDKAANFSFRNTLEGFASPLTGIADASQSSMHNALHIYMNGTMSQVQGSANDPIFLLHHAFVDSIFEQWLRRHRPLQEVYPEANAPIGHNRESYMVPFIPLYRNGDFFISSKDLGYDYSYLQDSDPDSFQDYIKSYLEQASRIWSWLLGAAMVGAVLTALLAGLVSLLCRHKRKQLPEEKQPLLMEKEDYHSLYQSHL
The test is described as follows: Ratio of kojic acid IC50 to compound IC50 for human tyrosinase.

Test [4] has as its target T3, Tyrosinase (Homo sapiens, UniProt P14679).
T3 sequence (P14679 whole entry): T2 sequence (whole entry)
The test is described as follows: Inhibition of tyrosinase in human HMV-2 melanoma cells after 5 mins by spectrophotometry. It is filed as cell-based.

In test [5] the target is T2, Tyrosinase (Homo sapiens). The test is described as follows: Inhibition of tyrosinase in human G-361 cells at >200 uM incubated for 10 mins measured for 2 hrs by MBTH-based spectrophotometry. Type of test: cell-based.
For test [6], the target named is T3, Tyrosinase.
Description: (§1) Competitive inhibition of tyrosinase in human G-361 cells incubated for 10 mins measured for 2 hrs by MBTH-based spectrophotometry
Test [7] addresses T2, Tyrosinase (Homo sapiens). The following applies: G-361.
Description: as §1

On Tyrosinase [1], `O=c1cc(-c2ccc(O)c(O)c2)oc2c(O)c(O)ccc12` yielded an IC50 of 0.07 µM.

The compound `CCCCC/C=C\C/C=C\CCCCCCCC(=O)OCC(COC(=O)CCCCCCC/C=C\C/C=C\CCCCC)OC(=O)CCCCCCC/C=C\C/C=C\CCCCC` registered an IC50 against Tyrosinase [2] of 8.4 µM.

Turning to `O=C(NCCc1c[nH]c2cc(O)ccc12)c1cc(O)cc(O)c1`, the Ratio IC50 in test [3] was 34.1. Besides, it took 9.1 µM to reach half-maximal inhibition on Tyrosinase [4] (IC50).

With `CC(C)c1ccccc(=O)c1O` [ALPHA-THUJAPLICIN], the Ratio IC50 in test [3] was < 0.57. Besides, the inhibition result in test [5] is “Active”. In addition, on Tyrosinase [6], the half-maximal inhibitory concentration (IC50) was > 1000 µM.

As to `CC(C)c1ccc(O)c(=O)cc1` [GAMMA-THUJAPLICIN], in test [3], the Ratio IC50 is 497. Besides, at Tyrosinase [6], the IC50 came to 1.15 µM. Moreover, the inhibition result in test [7] was “Dose-dependent effect”.

Consider `CC(C)c1cccc(=O)c(O)c1` [HINOKITIOL], for which the Ratio IC50 in test [3] worked out at 63.6. For the same compound, at Tyrosinase [6], 8.98 µM corresponded to half-maximal inhibition (IC50). Also, in test [7], the inhibition result was “Dose-dependent effect”.

Regarding `O=Cc1ccc(O)c(O)c1` [PROTOCATECHUALDEHYDE], 2.9 µM corresponded to half-maximal inhibition on Tyrosinase [1] (IC50).

On to `CCCCCCCC/C=C\CCCCCCCC(=O)OCC(COC(=O)CCCCCCC/C=C\CCCCCCCC)OC(=O)CCCCCCC/C=C\CCCCCCCC` [TRIOLEIN], for which, on Tyrosinase [2], half-maximal inhibition (IC50) was put at 30 µM.

As a reminder, the IC50 is the concentration at which inhibition is half-maximal.

Source of the values: ChEMBL document CHEMBL3352108, “Structure-activity relationships of the thujaplicins for inhibition of human tyrosinase” (Bioorg Med Chem, 2014).
